Measured values from patent US20230416275A1, “MODULATORS OF CYSTIC FIBROSIS TRANSMEMBRANE CONDUCTANCE REGULATOR” (VERTEX PHARMACEUTICALS INCORPORATED, priority 2020, published 2023).

Tests used:
[1] = target: T1, F508del in NIH 3T3 cells (Homo sapiens, UniProt P13569, DEL508-508); experiment: 3T3 assay: membrane potential optical assay for F508del correction; format: cell-based, mouse; conditions: for EC50 / 3T3 Max Activity (%): F508del NIH 3T3 cells; for EC50: compound incubation 18-24 hours at 37° C., forskolin activation, read-out: 3T3 EC50; for Emax: NIH3T3, F508del NIH 3T3 cells, read-out: 3T3 Max Activity (%); for Emax / 3T3 Max Activity (%): efficacy compared to lumacaftor in combination with acutely added 300 nM Ivacaftor
T1 construct: expressed in transfected cells
T1 sequence (P13569 with tags, fused parts or gaps DEL508-508): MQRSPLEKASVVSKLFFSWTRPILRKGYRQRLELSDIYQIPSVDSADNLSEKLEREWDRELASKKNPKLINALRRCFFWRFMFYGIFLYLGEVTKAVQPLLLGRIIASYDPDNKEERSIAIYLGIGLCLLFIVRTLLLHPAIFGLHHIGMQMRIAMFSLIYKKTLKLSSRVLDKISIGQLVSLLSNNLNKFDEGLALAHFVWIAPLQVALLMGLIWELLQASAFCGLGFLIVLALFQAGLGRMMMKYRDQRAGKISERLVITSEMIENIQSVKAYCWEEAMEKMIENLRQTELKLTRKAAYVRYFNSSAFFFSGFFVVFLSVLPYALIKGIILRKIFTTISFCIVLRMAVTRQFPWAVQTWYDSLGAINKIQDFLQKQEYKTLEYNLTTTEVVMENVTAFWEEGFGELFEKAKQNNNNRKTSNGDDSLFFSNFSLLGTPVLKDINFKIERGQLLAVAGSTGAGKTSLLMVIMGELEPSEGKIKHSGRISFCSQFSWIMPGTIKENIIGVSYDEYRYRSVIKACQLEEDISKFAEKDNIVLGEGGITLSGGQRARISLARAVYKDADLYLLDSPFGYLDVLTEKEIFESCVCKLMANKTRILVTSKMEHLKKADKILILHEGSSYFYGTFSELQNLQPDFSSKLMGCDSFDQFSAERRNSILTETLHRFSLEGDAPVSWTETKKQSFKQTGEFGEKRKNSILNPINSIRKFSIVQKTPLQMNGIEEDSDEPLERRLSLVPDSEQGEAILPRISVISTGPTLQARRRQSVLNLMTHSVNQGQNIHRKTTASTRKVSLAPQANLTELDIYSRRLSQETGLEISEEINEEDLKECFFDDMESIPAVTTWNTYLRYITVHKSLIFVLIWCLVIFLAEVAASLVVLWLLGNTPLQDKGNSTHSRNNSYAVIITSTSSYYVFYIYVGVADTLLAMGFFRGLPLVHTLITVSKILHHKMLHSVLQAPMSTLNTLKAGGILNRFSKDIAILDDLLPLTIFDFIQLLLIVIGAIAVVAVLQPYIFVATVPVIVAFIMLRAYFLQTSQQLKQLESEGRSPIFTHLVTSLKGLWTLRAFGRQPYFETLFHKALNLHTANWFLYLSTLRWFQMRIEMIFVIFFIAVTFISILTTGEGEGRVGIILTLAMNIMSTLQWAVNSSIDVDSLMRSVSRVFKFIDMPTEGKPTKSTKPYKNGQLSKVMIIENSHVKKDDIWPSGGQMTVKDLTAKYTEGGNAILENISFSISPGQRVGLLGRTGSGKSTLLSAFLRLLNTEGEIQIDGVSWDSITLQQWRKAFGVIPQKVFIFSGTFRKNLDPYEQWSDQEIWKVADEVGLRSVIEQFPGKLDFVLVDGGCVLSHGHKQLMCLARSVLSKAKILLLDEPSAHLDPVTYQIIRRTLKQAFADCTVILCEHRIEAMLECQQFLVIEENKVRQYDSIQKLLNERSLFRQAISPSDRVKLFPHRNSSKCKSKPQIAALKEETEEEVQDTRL
Description: a. Membrane Potential Optical Methods for Assaying F508del Modulation Properties of Compounds
The assay utilizes fluorescent voltage sensing dyes to measure changes in membrane potential using a fluorescent plate reader (e.g., FLIPR III, Molecular Devices, Inc.) as a readout for increase in functional F508del in NIH 3T3 cells. The driving force for the response is the creation of a chloride ion gradient in conjunction with channel activation by a single liquid addition step after the cells have previously been treated with compounds and subsequently loaded with a voltage sensing dye.
b. Identification of Corrector Compounds
To identify correctors of F508del, a single-addition HTS assay format was developed. This HTS assay utilizes fluorescent voltage sensing dyes to measure changes in membrane potential on the FLIPR III as a measurement for increase in gating (conductance) of F508del in F508del NIH 3T3 cells. The F508del NIH 3T3 cell cultures were incubated with the corrector compounds at a range of concentrations for 18-24 hours at 37° C., and subsequently loaded with a redistribution dye. The driving force for the response is a Cl^− ion gradient in conjunction with channel activation with forskolin in a single liquid addition step using a fluorescent plate reader such as FLIPR III.
Bath Solution #1: (in mM) NaCl 160, KCl 4.5, CaCl2 2, MgCl2 1, HEPES 10, pH 7.4 with NaOH.
Chloride-free bath solution: Chloride salts in Bath Solution #1 (above) are substituted with gluconate salts.
NIH3T3 mouse fibroblasts stably expressing F508del are used for optical measurements of membrane potential. The cells are maintained at 37° C. in 5% CO2 and 90% humidity in Dulbecco's modified Eagle's medium supplemented with 2 mM glutamine, 10% fetal bovine serum, 1×NEAA, b-ME, 1× pen/strep, and 25 mM HEPES in 175 cm^2 culture flasks. For all optical assays, the cells were seeded at ˜20,000/well in 384-well Matrigel-coated plates. For the correction assays, the cells are cultured at 37° C. with and without compounds for 16-24 hours.

[2] = target: CFTR-mediated chloride transport in human intestinal epithelial enteroid cells (Homo sapiens, UniProt P13569); experiment: Membrane potential dye, Enteroid Assay A; format: cell-based; conditions: for Ent. A Max Activity (%): % of chloride transport of triple combination control (3 μM N-[(6-amino-2-pyridyl)sulfonyl]-6-(3-fluoro-5-isobutoxy-phenyl)-2-[(4S)-2,2,4-trimethylpyrrolidin-1-yl]pyridine-3-carboxamide, 3 μM tezacaftor, 300 nM acute ivacaftor); for EC50: enteroid cells, 18-24 hours incubation, acute 10 μM forskolin and 300 nM ivacaftor, read-out: Ent. A EC50
Chain of CFTR-mediated chloride transport in human intestinal epithelial enteroid cells (P13569 with tags, fused parts or gaps DEL508-508): as above
Procedure: Base medium (ADF+++) consisted of Advanced DMEM/Ham's F12, 2 mM Glutamax, 10 mM HEPES, […] penicillin/streptomycin.
Intestinal enteroid maintenance medium (IEMM) consisted of ADF+++, 1×B27 supplement, 1×N2 supplement, 1.25 mM N-acetyl cysteine, 10 mM Nicotinamide, 50 ng/mL hEGF, 10 nM Gastrin, 1 μg/mL hR-spondin-1, 100 ng/mL hNoggin, TGF-b type 1 inhibitor A-83-01, 100 μg/mL Primocin, 10 μM P38 MAPK inhibitor SB202190.
Bath 1 Buffer consisted of 1 mM MgCl2, 160 mM NaCl, 4.5 mM KCl, 10 mM HEPES, 10 mM Glucose, 2 mM CaCl2.
Chloride Free Buffer consisted of 1 mM Magnesium Gluconate, 2 mM Calcium Gluconate, 4.5 mM Potassium Gluconate, 160 mM Sodium Gluconate, 10 mM HEPES, 10 mM Glucose.
Bath1 Dye Solution consisted of Bath 1 Buffer, 0.04% Pluronic F127, 20 μM Methyl Oxonol, 30 μM CaCCinh-A01, 30 μM Chicago Sky Blue.
Chloride Free Dye Solution consisted of Chloride Free Buffer, 0.04% Pluronic F127, 20 μM Methyl Oxonol, 30 μM CaCCinh-A01, 30 μM Chicago Sky Blue.
Chloride Free Dye Stimulation Solution consisted of Chloride Free Dye Solution, 10 μM forskolin, 100 μM IBMX, and 300 nM Compound III.
Human intestinal epithelial enteroid cells were obtained from the Hubrecht Institute for Developmental Biology and Stem Cell Research, Utrecht, The Netherlands and expanded in T-Flasks as previously described (Dekkers J F, Wiegerinck C L, de Jonge H R, Bronsveld I, Janssens H M, de Winter-de Groot K M, Brandsma A M, de Jong N W M, Bijvelds M J C, Scholte B J, Nieuwenhuis E E S, van den Brink S, Clevers H, van der Ent C K, Middendorp S and M Beekman J M. A functional CFTR assay using primary cystic fibrosis intestinal organoids. Nat Med. 2013 July; 19(7):939-45).
c. Enteroid Cell Harvesting and Seeding
Cells were recovered in cell recovery solution, collected by centrifugation at 650 rpm for 5 minutes at 4° C., resuspended in TrypLE and incubated for 5 minutes at 37° C. Cells were then collected by centrifugation at 650 rpm for 5 minutes at 4° C. and resuspended in IEMM containing 10 μM ROCK inhibitor (RI). The cell suspension was passed through a 40 μm cell strainer and resuspended at 1×10^6 cells/mL in IEMM containing 10 μM RI. Cells were seeded at 5000 cells/well into multi-well plates and incubated for overnight at 37° C., 95% humidity and 5% CO2 prior to assay.
d. Membrane Potential Dye, Enteroid Assay A
Enteroid cells were incubated with test compound in IEMM for 18-24 hours at 37° C., 95% humidity and 5% CO2. […] Briefly, cells were washed 5 times in Bath 1 Buffer. Bath 1 Dye Solution was added, and the cells were incubated for 25 minutes at room temperature. Following dye incubation, cells were washed 3 times in Chloride Free Dye Solution. Chloride transport was initiated by addition of Chloride Free Dye Stimulation Solution and the fluorescence signal was read for 15 minutes. […] Chloride transport was then expressed as a percentage of the chloride transport following treatment with 3 μM N-[(6-amino-2-pyridyl)sulfonyl]-6-(3-fluoro-5-isobutoxy-phenyl)-2-[(4S)-2,2,4-trimethylpyrrolidin-1-yl]pyridine-3-carboxamide, 3 μM (R)-1-(2,2-difluorobenzo[d][1,3]dioxol-5-yl)-N-(1-(2,3-dihydroxypropyl)-6-fluoro-2-(1-hydroxy-2-methylpropan-2-yl)-1H-indol-5-yl)cyclopropanecarboxamide and 300 nM acute N-[2,4-bis(1,1-dimethylethyl)-5-hydroxyphenyl]-1,4-dihydro-4-oxoquinoline-3-carboxamide triple combination control (% Activity).

| EC50 [1] | Emax [1] | EC50 [2] | 3T3 Max Activity (%) [1] | SMILES | Ent. A Max Activity (%) [2] |
| --- | --- | --- | --- | --- | --- |
| 1 to 3 µM | > 60% | 1 to 3 µM |  | Cc1cccc(C)c1-c1cc2nc(n1)NS(=O)(=O)c1cccc(c1)NC(=O)[C@@H]1C[C@H](CN(C(=O)OC(C)(C)C)C1)O2 (single isomer, unassigned) [Compound 3] | + (+ is <30%) |
| < 1 µM | > 60% | 3 to 30 µM |  | Cc1cccc(C)c1-c1cc2nc(n1)NS(=O)(=O)c1cccc(c1)NC(=O)[C@H]1CCC[C@H](C1)O2 (single isomer, unassigned) [Compound 68, 5-(2,6-dimethylphenyl)-9,9-dioxo-2-oxa-9λ^6-thia-6,8,15,23-tetraazatetracyclo[15.3.1.13,7.110,14]tricosa-3,5,7(23),10(22),11,13-hexaen-16-one] | ++ (++ is 30-60%) |
| < 1 µM |  | 1 to 3 µM | +++ (+++ is >60%) | Cc1cccc(C)c1-c1cc2nc(n1)NS(=O)(=O)c1cccc(c1)NC(=O)[C@H]1CCC[C@H](C1)O2 (single isomer, unassigned) [Compound 69, 5-(2,6-dimethylphenyl)-9,9-dioxo-2-oxa-9λ^6-thia-6,8,15,23-tetraazatetracyclo[15.3.1.13,7.110,14]tricosa-3,5,7(23),10(22),11,13-hexaen-16-one] | ++ (++ is 30-60%) |
| 1 to 3 µM |  | 1 to 3 µM | +++ (+++ is >60%) | Cc1cccc(C)c1-c1cc2nc(n1)NS(=O)(=O)c1cccc(c1)NC(=O)[C@H]1CCC[C@H](C1)O2 (single isomer, unassigned) [Compound 70, 5-(2,6-Dimethylphenyl)-9,9-dioxo-2-oxa-9λ^6-thia-6,8,15,23-tetraazatetracyclo[15.3.1.13,7.110,14]tricosa-3,5,7(23),10(22),11,13-hexaen-16-one] | ++ (++ is 30-60%) |
| 1 to 3 µM |  | 1 to 3 µM | +++ (+++ is >60%) | Cc1cccc(C)c1-c1cc2nc(n1)NS(=O)(=O)c1cccc(c1)NC(=O)[C@H]1CCC[C@H](C1)O2 (single isomer, unassigned) [Compound 71, 5-(2,6-dimethylphenyl)-9,9-dioxo-2-oxa-9λ^6-thia-6,8,15,23-tetraazatetracyclo[15.3.1.13,7.110,14]tricosa-3,5,7(23),10(22),11,13-hexaen-16-one] | +++ (+++ is >60%) |
| < 1 µM | > 60% | < 1 µM |  | Cc1cccc(C)c1-c1cc2nc(n1)NS(=O)(=O)c1cccc(c1)NC(=O)[C@@H]1C[C@@H](CN(CCC(C)(C)C)C1)O2 [Compound 5, (3S,7R)-5-(3,3-Dimethylbutyl)-19-(2,6-dimethylphenyl)-2-oxa-15λ^6-thia-5,9,16,18,21-pentaazatetracyclo[15.3.1.13,7.110,14]tricosa-1(20),10,12,14(22),17(21),18-hexaene-8,15,15-trione] | +++ (+++ is >60%) |
| < 1 µM | > 60% | 1 to 3 µM |  | COCCN1C[C@@H]2C[C@H](C1)C(=O)Nc1cccc(c1)S(=O)(=O)Nc1nc(cc(-c3c(C)cccc3C)n1)O2 [Compound 7, (3S,7R)-19-(2,6-Dimethylphenyl)-5-(2-methoxyethyl)-2-oxa-15λ^6-thia-5,9,16,18,21-pentaazatetracyclo[15.3.1.13,7.110,14]tricosa-1(21),10(22),11,13,17,19-hexaene-8,15,15-trione] | +++ (+++ is >60%) |
| < 1 µM | > 60% |  |  | Cc1cccc(C)c1-c1cc2nc(n1)NS(=O)(=O)c1cccc(c1)NC(=O)[C@H]1C[C@H](CN(CCC(C)(C)C)C1)O2 [Compound 11, (3R,7S)-5-(3,3-Dimethylbutyl)-19-(2,6-dimethylphenyl)-2-oxa-15λ^6-thia-5,9,16,18,21-pentaazatetracyclo[15.3.1.13,7.110,14]tricosa-1(21),10(22),11,13,17,19-hexaene-8,15,15-trione] | + (+ is <30%) |
| < 1 µM | > 60% | 1 to 3 µM |  | Cc1cccc(C)c1-c1cc2nc(n1)NS(=O)(=O)c1cccc(c1)NC(=O)[C@H]1C[C@@H](CN(CCC(C)(C)C)C1)O2 [Compound 12, (3S,7S)-5-(3,3-Dimethylbutyl)-19-(2,6-dimethylphenyl)-2-oxa-15λ^6-thia-5,9,16,18,21-pentaazatetracyclo[15.3.1.13,7.110,14]tricosa-1(21),10(22),11,13,17,19-hexaene-8,15,15-trione] | ++ (++ is 30-60%) |

| SMILES | EC50 [1] | Emax [1] | EC50 [2] | 3T3 Max Activity (%) [1] | Ent. A Max Activity (%) [2] |
| --- | --- | --- | --- | --- | --- |
| Cc1cccc(C)c1-c1cc2nc(n1)NS(=O)(=O)c1cccc(c1)NC(=O)[C@@H]1C[C@@H](CN(C(=O)OCCC(C)C)C1)O2 [Compound 8, 3-Methylbutyl (3S,7R)-19-(2,6-dimethylphenyl)-8,15,15-trioxo-2-oxa-15λ^6-thia-5,9,16,18,21-pentaazatetracyclo[15.3.1.13,7.110,14]tricosa-1(21),10(22),11,13,17,19-hexaene-5-carboxylate] | < 1 µM |  | < 1 µM |  | +++ (+++ is >60%) |
| Cc1cccc(C)c1-c1cc2nc(n1)NS(=O)(=O)c1cccc(c1)NC(=O)[C@@H]1C[C@@H](CN(C3CCCCC3)C1)O2 [Compound 10, (3S,7R)-5-cyclohexyl-19-(2,6-dimethylphenyl)-2-oxa-15λ^6-thia-5,9,16,18,21-pentaazatetracyclo[15.3.1.13,7.110,14]tricosa-1(21),10(22),11,13,17,19-hexaene-8,15,15-trione] | < 1 µM |  | 1 to 3 µM |  | ++ (++ is 30-60%) |
